# Laboratory results from patent US11209732B2, “Near infrared absorbing composition, film, infrared cut filter, solid image pickup element, infrared absorber, and compound” (FUJIFILM Corporation, priority 2015, dated 2021).
# Legend:
# [1] = Absorption maximum of compound in chloroform solution; assay type: physicochemical; conditions: absorbance at maximum 0.7 to 1.2
# Method: The absorption maximum of the squarylium compound (1) is a value measured using a chloroform solution of the squarylium compound that is adjusted such that an absorbance at the absorption maximum is in a range of 0.7 to 1.2.
# Each of the obtained compounds was dissolved in chloroform to prepare a solution having a concentration of 1 g/L. Next, the solution in which each of the compounds was dissolved was appropriately diluted such that an absorbance at an absorption maximum in an absorption spectrum thereof was in a range of 0.7 to 1.2, and the absorption maximum (λmax) thereof was measured using UV-1800 (manufactured by Shimadzu Corporation).
# [2] = Solubility of compound in solvents at 25° C.; assay type: physicochemical; conditions: for Solubility PGMEA: propylene glycol monomethyl ether acetate; for Solubility Cyclohexanone / Solubility in each of the solvents (in words): cyclohexanone; for Solubility in each of the solvents (in words): PGMEA; for Solubility Toluene / Solubility in each of the solvents (in words): toluene
# Method: The solubility of each of the compounds in each of solvents (cyclohexanone, propylene glycol monomethyl ether acetate (PGMEA), toluene) at 25° C. was evaluated based on the following criteria.
# A: the solubility of the compound in the solvent at 25° C. was 2 mass % or higher
Structure (SMILES),Absorption Maximum (nm) [1] [nm],Solubility in each of the solvents (in words) [2],Solubility Cyclohexanone [2],Solubility PGMEA [2],Solubility Toluene [2]
CCCCCCC1=CC(=[N+](c2ccc3ccccc3c2)c2ccc3ccccc3c2)S/C1=C1\C(=O)C(c2sc(N(c3ccc4ccccc4c3)c3ccc4ccccc4c3)cc2CCCCCC)=C1[O-] [Compound 1],719,–,A (the solubility of the compound in the solvent at 25 °C was 2 mass % or higher),B (the solubility of the compound in the solvent at 25 °C was 1 mass % or higher and lower than 2 mass %),A (the solubility of the compound in the solvent at 25 °C was 2 mass % or higher)
CCCCCCc1cc(-c2ccc(N(c3ccc(C)cc3)c3ccc(C)cc3)s2)sc1C1=C([O-])/C(=c2/s/c(=C3\C=CC(=[N+](c4ccc(C)cc4)c4ccc(C)cc4)S3)cc2CCCCCC)C1=O [Compound 5],–,–,A (the solubility of the compound in the solvent at 25 °C was 2 mass % or higher),B (the solubility of the compound in the solvent at 25 °C was 1 mass % or higher and lower than 2 mass %),A (the solubility of the compound in the solvent at 25 °C was 2 mass % or higher)
"O=C1C(c2sc(N(c3ccccc3)c3ccccc3)nc2-c2ccccc2)=C([O-])/C1=C1/SC(=[N+](c2ccccc2)c2ccccc2)N=C1c1ccccc1 [Compound R-1, reference compound]",687,insufficient,C (the solubility of the compound in the solvent at 25 °C was 0.5 mass % or higher and lower than 1 mass %),D (the solubility of the compound in the solvent at 25 °C was lower than 0.5 mass %),C (the solubility of the compound in the solvent at 25 °C was 0.5 mass % or higher and lower than 1 mass %)

# More lines, main results first:
Absorption Maximum (nm) [1] [nm],Solubility in each of the solvents (in words) [2],Structure (SMILES),Solubility Cyclohexanone [2],Solubility PGMEA [2],Solubility Toluene [2]
770,–,CCCCCCCCc1ccc(N(c2ccc(CCCCCCCC)cc2)c2cc3sc(C4=C([O-])/C(=c5\cc6c(s5)=CC(=[N+](c5ccc(CCCCCCCC)cc5)c5ccc(CCCCCCCC)cc5)S6)C4=O)cc3s2)cc1 [Compound 2],A (the solubility of the compound in the solvent at 25 °C was 2 mass % or higher),B (the solubility of the compound in the solvent at 25 °C was 1 mass % or higher and lower than 2 mass %),B (the solubility of the compound in the solvent at 25 °C was 1 mass % or higher and lower than 2 mass %)
860,–,CCCCCCCCc1ccc(N(c2ccc(CCCCCCCC)cc2)c2ccc(/C=C/c3ccc(C4=C([O-])/C(=c5\cc/c(=C\C=C6/C=CC(=[N+](c7ccc(CCCCCCCC)cc7)c7ccc(CCCCCCCC)cc7)S6)s5)C4=O)s3)s2)cc1 [Compound 4],A (the solubility of the compound in the solvent at 25 °C was 2 mass % or higher),B (the solubility of the compound in the solvent at 25 °C was 1 mass % or higher and lower than 2 mass %),B (the solubility of the compound in the solvent at 25 °C was 1 mass % or higher and lower than 2 mass %)
653,–,"CCCCCCCCCCCCN(c1ccccc1)c1ccc(C2=C([O-])/C(=C3C=C/C(=[N+](\CCCCCCCCCCCC)CCNS(=O)(=O)CCCC)C=C/3O)C2=O)s1 [Compound R-2, reference compound]",A (the solubility of the compound in the solvent at 25 °C was 2 mass % or higher),A (the solubility of the compound in the solvent at 25 °C was 2 mass % or higher),A (the solubility of the compound in the solvent at 25 °C was 2 mass % or higher)
704,insufficient,"CCCCc1ccc(N(c2ccc(CCCC)cc2)c2ccc(C3=C([O-])/C(=C4\C=CC(=[N+](c5ccc(CCCC)cc5)c5ccc(CCCC)cc5)S4)C3=O)s2)cc1 [Compound R-3, reference compound]",B (the solubility of the compound in the solvent at 25 °C was 1 mass % or higher and lower than 2 mass %),D (the solubility of the compound in the solvent at 25 °C was lower than 0.5 mass %),B (the solubility of the compound in the solvent at 25 °C was 1 mass % or higher and lower than 2 mass %)
